Legend:
[1] = system: Hela human cervical carcinoma cell line; test: MTT antiproliferative assay, Hela; format: cell-based; conditions: 48 h treatment
Procedure: (§1) The antiproliferative activity of 1b–12b against three human cancer cell lines (include HepG-2 human hepatoma cell line, Hela human cervical carcinoma cell line and A549 human lung adenocarcinoma cell line) and NIH/3T3 mouse embryonic fibroblast cells were evaluated by the MTT assay (Table 2). […] For Hela cells, the antiproliferative activity of some of the derivatives were similar to that of cis-DDP. […] We selected compound 1b and cis-DDP to generate growth-inhibitory curves (Figure 1) against HepG-2 cells and Hela cells.
(§2) A MTT assay was developed to monitor mammalian cell survival and proliferation in vitro [29]. HepG-2 cells, Hela and A549 cells from the China Center for Type Culture Collection (CCTCC, Wuhan, China) were cultivated in RPMI-1640 medium supplemented with 10% fetal bovine serum (ν/ν), 100 U/mL penicillin, and […] streptomycin. Cells (5 × 10^3 cell/well) at the log phase of their growth cycle were added to each well of a 96-well plate and incubated for 24 h at 37 °C in a humidified atmosphere of 5% CO2. Then, cells were treated with or without test compounds at different concentrations. After 48 h, 5 mg/mL MTT solution (20 μL per well) was added. Cells were incubated at 37 °C. After 4 h, the MTT solution was removed and DMSO was added to each well (150 μL). Eight to twelve minutes later, the optical density (OD) values were measured at room temperature at a wavelength of 595 nm on a FilterMax F3/F5 Microplate Reader (Molecular Devices, Sydney, Australia). In this experiment, 5 mg/mL of cisplatin was used as the positive control and 0.1% DMSO was used as the negative reference. Each assay was carried out at least three times.

HepG-2 cells [2] = test: Cellular apoptosis by Annexin V-FITC/PI flow cytometry; format: cell-based, human; conditions: 24 h; for total percentage of apoptotic cells (early and late, Q2 + Q3): vehicle 2.921%
Procedure: To examine the potency of the cancer cell apoptosis effect of 1b on HepG-2 cells, the number of apoptotic cells was monitored using flow cytometry. […] The total percentage of apoptotic cells (early and late, Q2 + Q3) was 2.921% when treated with vehicle alone.
HepG-2 cells (2.0 × 10^5 cells/well) were plated in a 6-well plate and allowed to adhere. After 24 h, the medium was replaced with fresh culture medium containing compound 1b at final concentrations of 2.5, 5, and 10 μmol/L at 37 °C. After 24 h, the cells were harvested and staining solution was added (containing 5 μL Annexin V-FITC and 5 μL PI). The cells were then incubated for 15 min at 20–25 °C in the dark. The samples were then detected in a FACScalibur BD Accuri^TM C6 flow cytometer. Analyses were performed by the software supplied with the instrument.

HepG-2 cells [3] = test: Western blot analysis of apoptosis-related proteins; format: cell-based, human; conditions: 2.5, 5 and 10 μM, 24 h
Procedure: To explore the mechanisms underlying apoptosis of compound 1b in HepG-2 cells, the characteristics of apoptosis including p53, caspase 3 and PARP cleavage were examined. […] The features of apoptosis appeared to occur in a dose-dependent manner. Furthermore, we measured the effect of 1b on expression of anti-apoptotic protein Bcl-2 and pro-apoptotic protein Bax in HepG-2 cells.
HepG-2 cells (1.0 × 10^6 cells/well) were seeded in six-well plates. After treatment with compound 1b for 24 h, the preparation of total protein samples from the culture cells for immunoblotting was carried out as previously described. For gel electrophoresis (Novex® NuPAGE® SDS-PAG, Thermo, Waltham, MA, USA), 30–50 μg of protein was used per well. Then the proteins were separated by SDS-PAGE and electroblotted to nitrocellulose membrane. The membrane was incubated with the following indicated antibody: Bcl-2, Bax, caspase-3, p53, PARP and β-actin (Cell Signaling Technology, Beverly, MA, USA) for 12 h at 4 °C. The antibodies were used in […] 5% BSA-TBS-T. The blots were washed four times and then incubated with horseradish peroxidase-conjugated secondary antibody (Santa Cruz Biotechnology Laboratories. Santa Cruz, CA, USA) for 1.5 h at room temperature. β-Actin antibody was used for equal loading.

[4] = system: A549 human lung adenocarcinoma cell line; test: MTT antiproliferative assay, A549; format: cell-based; conditions: 48 h treatment
Procedure: as §1, §2

[5] = system: HepG-2 human hepatoma cell line; test: MTT antiproliferative assay, HepG-2; format: cell-based; conditions: for IC50: MTT, 48 h treatment; for SI (selectivity index): SI = IC50, NIH/3T3/IC50, HepG-2
Procedure: as §1, §2

[6] = system: NIH/3T3 mouse embryonic fibroblast cells; test: MTT cytotoxicity assay, NIH/3T3 normal cells; format: cell-based; conditions: 48 h treatment, read-out: IC50 NIH/3T3 Cell Line
Procedure: as §1, §2

HepG-2 cells [7] = test: Flow cytometric analysis of cell cycle distribution (PI); format: cell-based, human; conditions: 24 h, control 9.97%
Excerpt: Cell cycle arrest is an important sign for inhibition of proliferation and the series of events that take place in a cell leading to its division and replication. […] Compound 1b was chosen for intensive mechanism study on HepG-2 cells because of its highest selectivity index (SI) value of 14.5. After the inhibitory effect of 1b on cell proliferation was observed, we next assessed the effect on the cell cycle distribution of HepG-2 cells by flow cytometry (Figure 3). […] This represented a remarkable difference from 9.97% in the control group (p < 0.05). These findings confirmed that compound 1b could influence HepG-2 cell cycle progression at low micromolar concentrations in a dose-dependent manner.
For flow cytometric analysis of the DNA content, HepG-2 cells (2.0 × 10^5 cells/well) in exponential growth were plated in 6-well plates and incubated for 24 h and then incubated with different concentrations (2.5, 5 and 10 μmol/L) of compound 1b at 37 °C for 24 h. After 24 h treatment, cells were collected, centrifuged, and fixed with ice-cold ethanol (70%) overnight 4 °C. The cells were washed twice with PBS and then treated with lysis buffer containing RNase A (Sigma, St. Louis, MO, USA), which was kept in a lukewarm bath at 37 °C, for 30 min, sequentially, and stained with PI and kept in the dark for 30 min [30]. Then, the samples were analyzed by a flow cytometer (FACSCalibur, BD Accuri^TM C6 BD Instruments Inc., New York, NY, USA). Each experiment was performed in triplicate. DNA histograms were analyzed using Mod Fit (version 3.2) for Windows (Verity Software House, New York, NY, USA).

HepG-2 cells [8] = test: Plate colony formation (clonogenic survival) assay; format: cell-based, human; conditions: different concentrations of 1b
Procedure: To assess the antiproliferative effect of compound 1b (Figure 2), we analyzed clonogenicity of HepG-2 cells after the treatment with 1b for 48 h.
Additionally, we used plate colony formation assay to evaluate the colony formation ability of HepG-2 cells. The cells were seeded in the complete medium in 6-well plate at 600 cells per well. After attachment, cells were exposed to different concentrations of compound 1b. After 7 days, the cells were fixed with paraformaldehyde for 20 min and stained with 1% crystal violet solution for 30 min to observe colonies.

Row | Structure (SMILES) | IC50 [1] | fold percentage of apoptotic cells in comparison with the control group (HepG-2 cells [2]; 2.5 μmol/L) | total percentage of apoptotic cells (early and late, Q2 + Q3) (HepG-2 cells [2]; 2.5 μmol/L) | fold percentage of apoptotic cells in comparison with the control group (HepG-2 cells [2]; 5 μmol/L) | total percentage of apoptotic cells (early and late, Q2 + Q3) (HepG-2 cells [2]; 5 μmol/L) | fold percentage of apoptotic cells in comparison with the control group (HepG-2 cells [2]; 10 μmol/L) | total percentage of apoptotic cells (early and late, Q2 + Q3) (HepG-2 cells [2]; 10 μmol/L) | PARP cleavage (HepG-2 cells [3]) | expression of anti-apoptotic protein Bcl-2 (HepG-2 cells [3]) | expression of pro-apoptotic protein Bax (HepG-2 cells [3]) | level of cleaved caspase-3 (HepG-2 cells [3]) | level of p53 (HepG-2 cells [3]) | IC50 [4] | IC50 [5] | SI (selectivity index) [5] | IC50 [6] | percentage of cells at the G2/M phase (HepG-2 cells [7]; 2.5 μmol/L) | percentage of cells at the G2/M phase (HepG-2 cells [7]; 5 μmol/L) | percentage of cells at the G2/M phase (HepG-2 cells [7]; 10 μmol/L) | clonogenicity / plate colony formation of HepG-2 cells (HepG-2 cells [8])
1 | COc1cc(C2CC(c3ccc(F)cc3)=NN2C(N)=S)cc(OC)c1OC (stereo not drawn) [1b] | 7.63 ± 1.35 µM | 1.33 fold | 3.889% | 2.26 fold | 6.581% | 3.53 fold | 10.309% | PARP was cleaved into fragmentation of 89 kDa | decrease in expression | increase in expression | dramatically increased | dramatically increased | > 100 µM | 6.78 ± 1.44 µM | >14.75 | > 100 µM | 25.06% | 56.15% | 71.25% | significantly reduced cell viability in a dose-dependent fashion
2 | CCOc1cc(C2CC(c3ccccc3O)=NN2C(N)=S)cc(Br)c1O (stereo not drawn) [9b, 3-(2-Hydroxyphenyl)-5-(3-ethyoxyl-4-hydroxy-5-bromothiophenyl)-4,5-dihydro-1H-pyrazole-1-carbothioamide] | 7.74 ± 1.63 µM | – | – | – | – | – | – | – | – | – | – | – | > 100 µM | 32.2 ± 2.83 µM | >3.10 | > 100 µM | – | – | – | –
3 | N.N.[Cl][Pt][Cl] [cis-DDP, cisplatin, reference compound] | 5.28 ± 0.66 µM | – | – | – | – | – | – | – | – | – | – | – | 29.5 ± 3.3 µM | 7.57 ± 0.98 µM | 0.64 | 4.88 ± 1.93 µM | – | – | – | –
